Data taken from the supplement of paper PMC10307832.

Key:
Tosedostat = compound: CC(C)C[C@@H](C(=O)N[C@H](C(=O)OC1CCCC1)c1ccccc1)[C@H](O)C(=O)NO [Tosedostat]; assay: relative viability (nuclei count vs DMSO), 5 days (fraction); higher = more cells survive
Outline: (§1)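 A plate was accepted only when its control CV was below 25% and the cells had doubled at least once. Viability is defined from nuclear counts as treated wells divided by vehicle wells, with the median taken across plates. That median covers lung cancer cell lines grown in 1536-well plates, dosed by pinning at five √10-spaced library-drug concentrations, and counted in MetaXpress from 4× Hoechst images after 5 days.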

[1] = compound: CC1=NN=C(O1)C2=NN=C(C=C2)N3CCC(CC3)OC4=C(C=CC(=C4)F)Cl; assay: as above
Outline: as §1

RERF-LC-KJ
relative viability (Tosedostat; 0.02 µM): 0.953 | relative viability (Tosedostat; 0.06325 µM): 1.03 | relative viability (Tosedostat; 0.2 µM): 0.944 | relative viability (Tosedostat; 0.6325 µM): 0.888 | relative viability (Tosedostat; 2 µM): 0.876 | relative viability ([1]; 0.253 µM): 0.653 | relative viability ([1]; 0.8 µM): 0.628 | relative viability ([1]; 2.53 µM): 0.652 | relative viability ([1]; 8 µM): 0.647

SK-LU-1
relative viability (Tosedostat; 0.02 µM): 1.1 | relative viability (Tosedostat; 0.06325 µM): 1.09 | relative viability (Tosedostat; 0.2 µM): 0.92 | relative viability (Tosedostat; 0.6325 µM): 0.938 | relative viability (Tosedostat; 2 µM): 0.854 | relative viability ([1]; 0.253 µM): 0.935 | relative viability ([1]; 0.8 µM): 0.783 | relative viability ([1]; 2.53 µM): 0.943 | relative viability ([1]; 8 µM): 0.722

SK-MES-1
relative viability (Tosedostat; 0.02 µM): 1.03 | relative viability (Tosedostat; 0.06325 µM): 1.02 | relative viability (Tosedostat; 0.2 µM): 1.01 | relative viability (Tosedostat; 0.6325 µM): 0.965 | relative viability (Tosedostat; 2 µM): 0.953 | relative viability ([1]; 0.253 µM): 0.859 | relative viability ([1]; 0.8 µM): 0.79 | relative viability ([1]; 2.53 µM): 0.912 | relative viability ([1]; 8 µM): 0.783

SW 900
relative viability (Tosedostat; 0.02 µM): 0.887 | relative viability (Tosedostat; 0.06325 µM): 0.952 | relative viability (Tosedostat; 0.2 µM): 0.855 | relative viability (Tosedostat; 0.6325 µM): 0.767 | relative viability (Tosedostat; 2 µM): 0.669 | relative viability ([1]; 0.8 µM): 0.545 | relative viability ([1]; 2.53 µM): 0.805 | relative viability ([1]; 8 µM): 0.574

SW 1573
relative viability (Tosedostat; 0.02 µM): 1.07 | relative viability (Tosedostat; 0.06325 µM): 0.95 | relative viability (Tosedostat; 0.2 µM): 0.881 | relative viability (Tosedostat; 0.6325 µM): 0.85 | relative viability (Tosedostat; 2 µM): 0.876 | relative viability ([1]; 0.253 µM): 0.894 | relative viability ([1]; 0.8 µM): 0.981 | relative viability ([1]; 2.53 µM): 0.942 | relative viability ([1]; 8 µM): 0.615
